Measurements: patent US8445409B2, “Use of 5-benzyloxymethyl-1,2-isoxazoline derivatives as a herbicide” (Moghu Research Center Ltd., priority 2007, dated 2013)

How the values were obtained:
Foxtail = assay: Upland pot test, pre-/post-emergence spray, visual rating; type: in vivo, green foxtail (SETVI); settings: 2 weeks after spray, 0-10 scale (10=completely killed)
From the text: To a rectangular plastic pot having a surface area of 300 cm^2, mixed soils including blend bed soil (Boonong, Horticultural Bed Soil No. 3) and sandy loam soil were filled (mixing ratio, 1:1). Seeds of the eight different types of weeds including gramineous weed such as barnyardgrass, large crabgrass, green foxtail, fall panicum, and broadleaf weed such as common cocklebur, velvetleaf, Indian joint-vetch, and morningglory were sown. To the other pot containing the same soil mixture, seeds of the five different types of crops including corn, soybean, cotton, wheat and rice were sown. Pots were kept in a greenhouse of which temperature was maintained at 25˜30° C. (day) or 15˜25° C. (night), and regularly watered.
After fourteen days and when the crops and the weeds reached their three-leaf stage, the other set of a crop pot and a weed pot were prepared by the same method as described above. Then, “test substance” was sprayed thereto. In this case, spray treatment to the plants after they have grown for two weeks corresponded to post-emergence treatment while spray treatment to the seeds right after the sowing corresponded to pre-emergence treatment. Spray was carried out by using a track sprayer (R&D Sprayer, USA) equipped with a Teejet 8002 nozzle (Spraying Systems Co., USA). Spray volume was adjusted to 300 L/ha. The spray solution was prepared by dissolving the “test substance” in acetone and adding the same volume of 0.2% (v/v) Tween 20 aqueous solution. Dosage of the test substance was 500, 250, 125, 62.5 or 31.3 g/ha. Two weeks after the spray of the test substance, efficacy and phytotoxic effect to the crops and the weeds were visually measured based on a 0 to 10 scale (0: no efficacy, 10: completely killed).

Large crabgrass = assay: Herbicidal activity at different growth stages, fresh weight suppression; type: in vivo; settings: .12 kg/ha, fresh weight two weeks after treatment

## Cc1ccsc1C1=NOC(C)(COCc2c(F)cccc2F)C1 (stereo not shown) [test substance, 5-(2,6-difluorobenzyl)oxymethyl-5-methyl-3-(4-methylthiophen-5-yl)-1,2-isoxazoline]
Foxtail; post-emergence foliar spray at three leaf stage, 31.2 g/ha
  Visual measurement: Gramineous weed, Foxtail: 0
Foxtail; post-emergence foliar spray at three leaf stage, 62.5 g/ha
  Visual measurement: Gramineous weed, Foxtail: 1
Foxtail; post-emergence foliar spray at three leaf stage, 125 g/ha
  Visual measurement: Gramineous weed, Foxtail: 2
Foxtail; post-emergence foliar spray at three leaf stage, 250 g/ha
  Visual measurement: Gramineous weed, Foxtail: 5
Foxtail; post-emergence foliar spray at three leaf stage, 500 g/ha
  Visual measurement: Gramineous weed, Foxtail: 9
Foxtail; pre-emergence soil treatment, 31.2 g/ha
  Visual measurement: Gramineous weed, Foxtail: 1
Foxtail; pre-emergence soil treatment, 62.5 g/ha
  Visual measurement: Gramineous weed, Foxtail: 3
Foxtail; pre-emergence soil treatment, 125 g/ha
  Visual measurement: Gramineous weed, Foxtail: 9
Foxtail; pre-emergence soil treatment, 250 g/ha
  Visual measurement: Gramineous weed, Foxtail: 9
Foxtail; pre-emergence soil treatment, 500 g/ha
  Visual measurement: Gramineous weed, Foxtail: 10
Large crabgrass
  Suppression ratio relative to the biomass of the untreated group: Large crabgrass 1 leaf: 95%
  Suppression ratio relative to the biomass of the untreated group: Large crabgrass 3 leaf: 23%
  Suppression ratio relative to the biomass of the untreated group: Large crabgrass PRE: 84%
